These results are taken from patent publication US20230406855A1, “N-1 BRANCHED IMIDAZOQUINOLINES, CONJUGATES THEREOF, AND METHODS” (3M INNOVATIVE PROPERTIES COMPANY, priority 2020, published 2023).

In assay [1] the test system is LHRH receptor expressing tumor cells. Particulars: free Dox relative to LHRH-conjugated Dox; cited from earlier work.
A further assay deals with T1, human TLR7 (Homo sapiens, UniProt Q9NYK1).
T1 construct: host or cells: HEK293 (HEK-BLUE-hTLR7)
T1 sequence (Q9NYK1 27-1049): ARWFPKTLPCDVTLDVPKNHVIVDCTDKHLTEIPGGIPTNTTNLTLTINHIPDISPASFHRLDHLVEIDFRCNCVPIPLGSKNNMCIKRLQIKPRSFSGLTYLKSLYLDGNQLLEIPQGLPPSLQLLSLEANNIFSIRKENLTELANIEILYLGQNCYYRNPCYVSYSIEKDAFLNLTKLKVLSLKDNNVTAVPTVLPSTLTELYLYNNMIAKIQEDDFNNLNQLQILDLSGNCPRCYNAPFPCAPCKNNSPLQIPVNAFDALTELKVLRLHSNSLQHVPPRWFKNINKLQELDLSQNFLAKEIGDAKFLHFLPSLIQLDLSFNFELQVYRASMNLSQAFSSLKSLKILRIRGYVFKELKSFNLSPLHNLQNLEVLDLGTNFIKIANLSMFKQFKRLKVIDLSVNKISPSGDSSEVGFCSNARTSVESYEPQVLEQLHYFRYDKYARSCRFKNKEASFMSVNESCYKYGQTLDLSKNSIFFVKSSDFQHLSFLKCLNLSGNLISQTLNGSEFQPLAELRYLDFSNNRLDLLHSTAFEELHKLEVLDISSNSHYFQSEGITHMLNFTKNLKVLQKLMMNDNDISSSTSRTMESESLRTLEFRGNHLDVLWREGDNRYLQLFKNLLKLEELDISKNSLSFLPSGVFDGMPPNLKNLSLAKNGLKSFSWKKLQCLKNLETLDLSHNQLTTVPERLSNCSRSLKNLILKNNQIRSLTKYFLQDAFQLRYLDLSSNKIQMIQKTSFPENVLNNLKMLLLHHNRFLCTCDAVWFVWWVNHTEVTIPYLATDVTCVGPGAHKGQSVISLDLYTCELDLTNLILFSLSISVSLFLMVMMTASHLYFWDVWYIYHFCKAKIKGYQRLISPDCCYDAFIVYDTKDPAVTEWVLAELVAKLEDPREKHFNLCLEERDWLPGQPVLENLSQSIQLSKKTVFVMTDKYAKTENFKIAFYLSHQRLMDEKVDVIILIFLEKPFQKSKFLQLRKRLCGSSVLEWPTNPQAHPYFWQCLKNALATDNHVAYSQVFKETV
The assay is described as follows: TLR activation and specificity, HEK-BLUE-hTLR7 SEAP reporter cells. Particulars: 16-20 hours, lowest concentration giving SEAP response at least 2x vehicle control, tested 0.01-30 micromolar. It is filed as cell-based. The procedure: (§1) HEK-BLUE-hTLR7 or hTLR8 reporter cells were obtained from InvivoGen, San Diego, CA. According to the manufacturer's description, these reporter cells were prepared by co-transfection of HEK293 cells with an inducible secreted embryonic alkaline phosphatase (SEAP) reporter gene and either the human TLR7 or TLR8 gene. The SEAP reporter gene was placed under the control of an IFN-β minimal promoter fused to five NF-κB and AP-1-binding sites. In the presence of a TLR ligand, activation of NF-κB and AP-1 occurs, resulting in a corresponding increase in SEAP levels. […]
(§2) For each compound, hTLR7, hTLR8, and their respective null control HEK cells were screened. […] Cell culture supernatants containing the SEAP reporter were collected after an incubation period of 16-20 hours in a cell culture incubator (37° C. and 5% CO2), and either analyzed immediately or stored at −80° C. SEAP levels were measured using the colorimetric enzyme assay (QUANTI-BLUE (InvivoGen) according to manufacturer's instructions.
(§3) Specifically, the minimum effective concentration of each compound (micromolar) was determined as the lowest concentration of the compound that produced a SEAP expression response at least 2× greater than that observed with the vehicle control wells.

For assay [2], the system named is Human peripheral blood mononuclear cells (PBMC). The assay is described as follows: Cytokine induction in human cells (PBMC), Ella Simple Plex ELISA. Format: cell-based. The settings on record: 21-24 hours, lowest concentration giving cytokine at least 2x negative control, tested 0.01-30 micromolar. The procedure:
Whole blood was obtained from healthy human donors and collected by venipuncture into vacutainer tubes or syringes containing EDTA. Human peripheral blood mononuclear cells (PBMC) were purified from the whole blood by density gradient centrifugation. Histopaque 1077 (15 mL, Sigma, St. Louis, MO) was transferred to 6×50 mL sterile polypropylene conical tubes. The Histopaque was overlayed with 15-25 mL of blood diluted 1:2 in Hank's Balanced Salts Solution (HBSS) (Gibco, Life Technologies, Grand Island, NY). The tubes were then centrifuged at 1370 rpm for 30 minutes at 20° C., with no brake (400×g, GH 3.8 A Rotor).
The interface (buffy coat) containing the PBMC was collected and placed in a new sterile 50 mL conical polypropylene centrifuge tube. The PBMC were mixed with an equal volume of HBSS (about 20 mL from the interface and about 20 mL of HBSS), and then centrifuged at 1090 rpm, 10 minutes, 20° C., with brake (270×g, GH 3.8 A Rotor). After completing centrifugation, the cells were resuspended in 2-3 mL ACK Red blood cell lysis buffer (ammonium chloride potassium solution, Gibco, Life Technologies) and incubated for 2-5 minutes at 20° C. Next, HBSS (40 mL) was added to the cells, and the sample was centrifuged at 270×g for 10 minutes at 20° C. The supernatant was decanted, and the cell pellet was resuspended in 5 mL AIM V Medium (Gibco, Life Technologies). Cell aggregates and debris were removed by filtering the cell solution through a BD Falcon 70 micron nylon cell strainer (BD Biosciences, San Jose, CA).
The number of viable cells was determined by counting with a Moxi Z instrument (ORFLO Technologies, Ketchum, ID) or by using a hemacytometer. For determining cell viability with a hemacytometer, the cells were diluted 1/10 in 0.4% trypan blue and HBSS (specifically, 50 microliter of trypan blue+40 microliter of HBSS+10 microliter of cell solution were added to a microfuge tube and mixed). Ten microliters of the diluted cells were then applied to the hemacytometer, and the number of viable PBMC were determined by microscopy.
The PBMC sample was then resuspended in 96-well plates at a concentration of 8×10^5 cells/well in 0.1 mL of AIM-V medium. Each compound was solubilized in dimethyl sulfoxide (DMSO) to create a 3 mM stock solution. The stock solution was then further diluted with AIM-V medium to prepare the serial dilutions. The diluted compound (100 microliters) was then transferred to the PBMCs to produce testing sets with final compound concentrations of 30, 10, 3.3, 1.1, 0.37, 0.12, 0.04, 0.01 micromolar. The plates also had both positive and negative controls. The negative control wells contained only AIM-V medium with no example compound. The positive control wells contained a control set of imiquimod serially diluted to concentrations of 30, 10, 3.3, 1.1, 0.37, 0.12, 0.04, 0.01 micromolar. The concentrations used in the control set were selected to match the concentrations used in the testing set. The plates were then cultured at 37° C./5% CO2 for 21-24 hours. Cell-free supernatants were harvested by centrifuging the 96-well plates at 2100 rpm, 23° C. for 10 minutes. Approximately 160 microliters of the supernatant was then stored in a NUNC 96-well plate, covered with the compression cap and stored at −80° C. until the cytokine analysis was done.
Cytokine levels (human IFN-alpha multisubtype, human IFN-gamma, and human TNF-alpha) were measured in picograms/mL by Ella Simple Plex ELISA (ProteinSimple, San Jose, CA) according to the manufacturer's instructions.
Specifically, the minimum effective concentration of each compound (micromolar) was determined as the lowest concentration of the compound that induced a measured cytokine response at a level ([…]) that was at least 2× greater than that observed with the negative control wells.
In general terms: ELISA stands for enzyme-linked immunosorbent assay.

A further assay deals with T2, human TLR8 (Homo sapiens, UniProt Q9NR97).
T2 construct: host or cells: HEK293 (HEK-BLUE-hTLR8)
T2 sequence (Q9NR97 27-1041): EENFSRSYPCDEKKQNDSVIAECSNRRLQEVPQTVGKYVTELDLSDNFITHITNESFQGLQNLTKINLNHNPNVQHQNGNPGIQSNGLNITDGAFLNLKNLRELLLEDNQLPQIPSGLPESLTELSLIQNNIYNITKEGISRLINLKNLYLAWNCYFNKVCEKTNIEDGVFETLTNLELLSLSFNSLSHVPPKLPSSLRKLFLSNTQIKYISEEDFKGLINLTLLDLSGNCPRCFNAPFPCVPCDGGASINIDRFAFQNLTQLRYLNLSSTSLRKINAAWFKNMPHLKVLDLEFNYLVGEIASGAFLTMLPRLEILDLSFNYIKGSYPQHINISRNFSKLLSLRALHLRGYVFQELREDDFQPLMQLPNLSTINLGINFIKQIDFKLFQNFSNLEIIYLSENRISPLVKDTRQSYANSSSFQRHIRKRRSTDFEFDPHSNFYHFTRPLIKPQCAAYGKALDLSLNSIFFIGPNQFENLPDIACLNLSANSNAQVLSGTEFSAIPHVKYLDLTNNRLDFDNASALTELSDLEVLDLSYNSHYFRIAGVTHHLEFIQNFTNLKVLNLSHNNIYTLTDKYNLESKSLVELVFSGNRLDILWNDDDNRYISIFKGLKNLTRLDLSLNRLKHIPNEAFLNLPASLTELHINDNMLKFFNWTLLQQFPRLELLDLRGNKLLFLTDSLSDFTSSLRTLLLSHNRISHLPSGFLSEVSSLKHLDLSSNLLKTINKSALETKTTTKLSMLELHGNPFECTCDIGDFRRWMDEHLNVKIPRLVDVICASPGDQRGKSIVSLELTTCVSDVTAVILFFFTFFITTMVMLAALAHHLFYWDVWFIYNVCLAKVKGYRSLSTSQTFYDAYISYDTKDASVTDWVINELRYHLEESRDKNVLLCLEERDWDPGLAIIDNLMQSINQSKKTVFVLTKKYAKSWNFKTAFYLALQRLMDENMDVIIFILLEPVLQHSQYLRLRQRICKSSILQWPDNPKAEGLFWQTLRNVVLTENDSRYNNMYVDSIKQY
The assay is described as follows: TLR activation and specificity, HEK-BLUE-hTLR8 SEAP reporter cells. It is filed as cell-based. The settings on record: 16-20 hours, lowest concentration giving SEAP response at least 2x vehicle control, tested 0.01-30 micromolar. As for the experimental part:
as §1, §2, §3

With `C[C@@H]1C[C@H]2[C@@H]3CCC4=CC(=O)C=C[C@]4(C)C3=CC[C@]2(C)[C@H]1C(=O)CN1CCN(c2cc(N3CCCC3)nc(N3CCCC3)n2)CC1` [Dox], the “amount of free Dox required for antitumor activity equal to the LHRH conjugate” value in assay [1] was “approximately 200 times”.
On to `CCOC[C@H](Cc1ccc(OCc2cn(Cc3ccccc3)nn2)cc1)n1cnc2c(N)nc3ccccc3c21` [Example 2, (S)-1-(1-(4-((1-benzyl-1H-1,2,3-triazol-4-yl)methoxy)phenyl)-3-ethoxypropan-2-yl)-1H-imidazo[4,5-c]quinolin-4-amine], for which, at human TLR7, the “MEC to Produce TLR Activation, TLR 7” value was no more than 0.01 µM. In assay [2], the “MEC to Induce Cytokine IFN-alpha” value was no more than 0.01 µM, the “MEC to Induce Cytokine IFN-gamma” value was no more than 0.01 µM and the “MEC to Induce Cytokine TNF-alpha” value was no more than 0.01 µM. Also, the “MEC to Produce TLR Activation, TLR 8” value at human TLR8 is 3.3 µM.
With `C#CCOc1ccc(C[C@@H](COCC)n2cnc3c(N)nc4ccccc4c32)cc1` [Example 1, (S)-1-(1-ethoxy-3-(4-(prop-2-yn-1-yloxy)phenyl)propan-2-yl)-1H-imidazo[4,5-c]quinolin-4-amine], at human TLR7, the “MEC to Produce TLR Activation, TLR 7” value was no more than 0.01 µM. Moreover, in assay [2], the “MEC to Induce Cytokine IFN-alpha” value was no more than 0.01 µM, the “MEC to Induce Cytokine IFN-gamma” value was no more than 0.01 µM and the “MEC to Induce Cytokine TNF-alpha” value is no more than 0.01 µM. Further, the “MEC to Produce TLR Activation, TLR 8” value at human TLR8 came out at 10 µM.
